The record followed here is ChEMBL document CHEMBL2074311, “ATP-dependent para-aminohippurate transport by apical multidrug resistance protein MRP2” (Kidney Int, 2000).

For data set [1], the target named is T1, ATP-binding cassette sub-family C member 2 (Homo sapiens, UniProt Q92887). Put plainly: TP_TRANSPORTER: uptake in membrane vesicles from MRP2-expressing HEK cells. The following applies: hek293. It is filed as functional, cell membranes, Membrane vesicle.
The target of data set [2] is T1, ATP-binding cassette sub-family C member 2. Put plainly: TP_TRANSPORTER: inhibition of PAH uptake (PAH: 0.1uM) in membrane vesicles from MRP2-expressing HEK cells. It is filed as functional, cell membranes, HEK293, Membrane vesicle.

T1 sequence (Q92887 whole entry): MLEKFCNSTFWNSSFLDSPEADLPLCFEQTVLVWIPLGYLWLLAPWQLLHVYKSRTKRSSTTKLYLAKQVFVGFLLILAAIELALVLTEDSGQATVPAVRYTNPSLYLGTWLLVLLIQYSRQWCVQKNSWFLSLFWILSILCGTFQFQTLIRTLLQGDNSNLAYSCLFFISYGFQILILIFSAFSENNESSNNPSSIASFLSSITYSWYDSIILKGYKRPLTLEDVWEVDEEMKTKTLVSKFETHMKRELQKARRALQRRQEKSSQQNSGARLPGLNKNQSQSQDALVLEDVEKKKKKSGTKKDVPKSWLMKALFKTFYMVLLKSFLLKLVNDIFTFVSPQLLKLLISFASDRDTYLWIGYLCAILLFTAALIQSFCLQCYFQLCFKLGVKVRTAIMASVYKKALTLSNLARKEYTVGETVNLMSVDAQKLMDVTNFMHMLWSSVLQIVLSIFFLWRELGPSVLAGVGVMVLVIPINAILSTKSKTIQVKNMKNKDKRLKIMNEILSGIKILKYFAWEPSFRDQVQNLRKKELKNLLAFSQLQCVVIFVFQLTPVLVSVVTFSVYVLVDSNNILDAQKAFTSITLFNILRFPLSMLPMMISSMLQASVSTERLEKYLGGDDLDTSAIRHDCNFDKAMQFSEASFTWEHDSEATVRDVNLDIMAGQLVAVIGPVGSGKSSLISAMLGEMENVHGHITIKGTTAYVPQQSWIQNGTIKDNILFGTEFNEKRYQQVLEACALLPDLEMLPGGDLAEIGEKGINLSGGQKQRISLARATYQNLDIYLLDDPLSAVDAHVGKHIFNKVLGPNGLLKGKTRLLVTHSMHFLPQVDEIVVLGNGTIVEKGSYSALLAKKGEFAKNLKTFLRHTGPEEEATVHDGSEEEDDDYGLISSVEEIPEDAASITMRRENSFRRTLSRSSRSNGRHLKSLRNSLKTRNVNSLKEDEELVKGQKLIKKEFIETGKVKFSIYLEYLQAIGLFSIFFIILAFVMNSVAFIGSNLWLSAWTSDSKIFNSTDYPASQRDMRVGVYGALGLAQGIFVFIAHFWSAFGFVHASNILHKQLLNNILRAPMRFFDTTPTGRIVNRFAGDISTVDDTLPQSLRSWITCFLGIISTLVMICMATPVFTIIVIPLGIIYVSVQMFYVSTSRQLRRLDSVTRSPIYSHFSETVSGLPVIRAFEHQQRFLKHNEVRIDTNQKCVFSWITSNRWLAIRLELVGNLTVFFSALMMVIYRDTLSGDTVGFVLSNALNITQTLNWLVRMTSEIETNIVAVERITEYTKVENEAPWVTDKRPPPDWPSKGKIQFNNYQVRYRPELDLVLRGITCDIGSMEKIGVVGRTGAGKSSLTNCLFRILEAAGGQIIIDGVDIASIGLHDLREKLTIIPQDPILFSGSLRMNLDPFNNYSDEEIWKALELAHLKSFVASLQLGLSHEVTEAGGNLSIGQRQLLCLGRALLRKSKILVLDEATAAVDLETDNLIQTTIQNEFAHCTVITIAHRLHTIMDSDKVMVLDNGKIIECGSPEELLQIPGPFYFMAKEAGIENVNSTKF

In the case of `C[C@@H]1Cc2c(Cl)cc(C(=O)N[C@@H](Cc3ccccc3)C(=O)O)c(O)c2C(=O)O1` [3R14S-OCHRATOXIN A], the Activity entry in data set [1] was “substrate [+]”. In data set [2], this compound showed an IC50 of 58 µM.

As for `CCCCC/C=C\C\C=C/C=C/C=C/[C@@H](SC[C@@H](NC(=O)CC[C@H](N)C(=O)O)C(=O)NCC(=O)O)[C@@H](O)CCCC(=O)O` [LEUKOTRIEN C4], the IC50 in data set [2] was 3.3 µM.

In data set [2], `CN(C)C(=O)CCSC(SCCC(=O)O)c1cccc(/C=C/c2ccc3ccc(Cl)cc3n2)c1` (centres undefined) [MK-571] returned a half-maximal inhibitory concentration (IC50) of 4 µM.
